# In US20240342318A1, “CONJUGATES COMPRISING COVALENT BINDERS FOR TARGETING INTRACELLULAR PROTEINS” (RayzeBio, Inc., priority 2021, published 2024):
# What was measured:
# EGFR (WT) = target: T1, EGFR (WT) (Homo sapiens, UniProt P00533); assay: In vitro kinase binding assay (phage/DNA-tagged kinase, affinity beads, qPCR), wild-type EGFR
# T1 construct: The EGFR constructs span amino acids R669 to V1011 of the EGFR protein; T7 phage display fusion (kinase-tagged T7 phage) or DNA tag for qPCR; made in house; host or cells: E. coli (BL21-derived) infected with T7 phage for most assays; remaining kinases in HEK-293
# Method: (§1) For most assays, kinase-tagged T7 phage strains were prepared in an E. coli host derived from the BL21 strain. For the EGFR assays, wild-type EGFR, or mutant EGFR (T790M, L858R) were utilized. The EGFR constructs span amino acids R669 to V1011 of the EGFR protein. E. coli were grown to log-phase and infected with T7 phage and incubated with shaking at 32° C. until lysis. The lysates were centrifuged and filtered to remove cell debris. The remaining kinases were produced in HEK-293 cells and subsequently tagged with DNA for qPCR detection. Streptavidin-coated magnetic beads were treated with biotinylated small molecule ligands for 30 minutes at room temperature to generate affinity resins for kinase assays. The liganded beads were blocked with excess biotin and washed with blocking buffer (SeaBlock (Pierce), 1% BSA, 0.05% Tween 20, 1 mM DTT) to remove unbound ligand and to reduce non-specific binding. Binding reactions were assembled by combining kinases, liganded affinity beads, and test compounds in 1× binding buffer (20% SeaBlock, 0.17×PBS, 0.05% Tween 20, 6 mM DTT). Test compounds were prepared as 111× stocks in 100% DMSO. Kds were determined using an 11-point 3-fold compound dilution series with three DMSO control points. All compounds for Kd measurements are distributed by acoustic transfer (non-contact dispensing) in 100% DMSO. The compounds were then diluted directly into the assays such that the final concentration of DMSO was 0.9%. All reactions performed in polypropylene 384-well plate. Each was a final volume of 0.02 ml. The assay plates were incubated at room temperature with shaking for 1 hour and the affinity beads were washed with wash buffer (lx PBS, 0.05% Tween 20). The beads were then re-suspended in elution buffer (lx PBS, 0.05% Tween 20, 0.5 μM nonbiotinylated affinity ligand) and incubated at room temperature with shaking for 30 minutes. The kinase concentration in the eluates was measured by qPCR.
# EGFR (L858R, T790M) = target: T2, EGFR (L858R, T790M) (Homo sapiens, UniProt P00533, L858R/T790M); assay: In vitro kinase binding assay (phage/DNA-tagged kinase, affinity beads, qPCR), mutant EGFR
# T2 construct: The EGFR constructs span amino acids R669 to V1011 of the EGFR protein; T7 phage display fusion (kinase-tagged T7 phage) or DNA tag for qPCR; made in house; host or cells: E. coli (BL21-derived) infected with T7 phage for most assays; remaining kinases in HEK-293
# Method: as §1
# T2 sequence (P00533 669-1011 T790M/L858R): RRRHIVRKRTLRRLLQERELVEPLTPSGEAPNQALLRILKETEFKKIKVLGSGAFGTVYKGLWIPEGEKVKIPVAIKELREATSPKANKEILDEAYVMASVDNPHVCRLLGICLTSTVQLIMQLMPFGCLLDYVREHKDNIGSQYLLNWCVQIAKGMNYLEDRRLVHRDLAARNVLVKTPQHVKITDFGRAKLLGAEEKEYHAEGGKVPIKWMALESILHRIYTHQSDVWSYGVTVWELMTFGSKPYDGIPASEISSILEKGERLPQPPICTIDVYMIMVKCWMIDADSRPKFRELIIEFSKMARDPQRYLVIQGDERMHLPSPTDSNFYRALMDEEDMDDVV
# T1 sequence (P00533 669-1011): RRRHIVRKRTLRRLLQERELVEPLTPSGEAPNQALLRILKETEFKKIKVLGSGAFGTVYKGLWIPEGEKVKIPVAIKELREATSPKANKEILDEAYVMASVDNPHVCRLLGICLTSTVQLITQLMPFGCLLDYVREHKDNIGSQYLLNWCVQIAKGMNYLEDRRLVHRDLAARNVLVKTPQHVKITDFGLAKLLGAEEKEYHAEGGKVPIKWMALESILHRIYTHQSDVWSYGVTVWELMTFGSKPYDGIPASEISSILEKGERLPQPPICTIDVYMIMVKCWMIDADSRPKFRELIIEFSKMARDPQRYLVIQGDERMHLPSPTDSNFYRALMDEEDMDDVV
structure (smiles),measurement,setting,value
"C=CC(=O)N1C[C@H](COc2nc(Nc3cnn(CCCCCNC(=O)CN4CCN5CCN6CCN(CC4)CC(=O)[O][Lu]([O]C(=O)C5)[O]C(=O)C6)c3)nc3[nH]cc(Cl)c23)[C@@H](OC)C1 [Compound 007-Lu, N-[5-[4-[[5-chloro-4-[[(3R,4R)-4-methoxy-1-prop-2-enoyl-pyrrolidin-3-yl]methoxy]-7H-pyrrolo [2,3-d]pyrimidin-2-yl]amino]pyrazol-1-yl]pentyl]-2-(3,16,19-trioxo-2,17,18-trioxa-5,8,11,14-tetraza-1λ3-lutetatricyclo[9.6.3.25,14]docosan-8-yl)acetamide]",Kd,EGFR (WT),100 to 1000 nM
same,Kd,"EGFR (L858R, T790M)",< 1 nM
same,Binding Affinity ratio of WT/DM,"EGFR (L858R, T790M); ratio of Kd EGFR (WT) to Kd EGFR (L858R, T790M)",C (100 < C ≤ 1000)
